Data on 6 molecules can be found in patent US20240279283A1, “CYCLIC PEPTIDE ANTIBIOTICS” (priority 2021, published 2024).

What all share (format): cell-based
Holding throughout (details): LB broth, 5×10^5 CFU/ml, 37° C., 18 hours, scored by eye

One experiment concerns K. pneumoniae ATCC43816. Put plainly: Minimum Inhibitory Concentration (MIC) determination, K. pneumoniae ATCC43816. The arrangement: unit not given here. Here is the method: (§1) MICs were determined by performing two-fold serial dilutions of peptides in LB broth to a final volume of 0.1 ml in round-bottom 96-well assay plates (Corning Life Sciences No 3788). Peptides were initially resuspended in 100% DMSO to 10 mM and subsequently diluted in LB medium to the appropriate concentration. Each well was inoculated with 5×10^5 CFU/ml of the screening stain and incubated at 37° C. without agitation for 18 hours. Plates were scored by eye, and the lowest compound concentration preventing visible growth was determined to be the MIC.

The next experiment has as its system E. coli 25922. The experiment is described as follows: Minimum Inhibitory Concentration (MIC) determination, E. coli 25922. Details: unit not given here. A digest of the protocol:
(§2)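 Peptides, diluted two-fold in LB broth from 10 mM DMSO stocks, were inoculated with 5×10^5 CFU/ml of each strain. Incubation was 18 h at 37 °C without shaking. MIC is the lowest concentration preventing visible growth, scored by eye.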

The test system of another experiment is E. coli BW25113. The experiment is described as follows: Minimum Inhibitory Concentration (MIC) determination, E. coli BW25113. Details: unit not given here. A digest of the protocol: as §2
In a further experiment the test system is E. coli 25922 IMP. Put plainly: Minimum Inhibitory Concentration (MIC) determination, E. coli 25922 IMP. A digest of the protocol:
as §2

In another experiment the test system is E. cloacae ATCC222. The experiment is described as follows: Minimum Inhibitory Concentration (MIC) determination, E. cloacae ATCC222. Details: unit not given here. Here is the method:
as §1

Bridge positions count the residues as written; N and C are the ends. Square brackets hold non-standard residues; d marks the D form. Peptide text beside a SMILES is read from it. NMePhe(4-Cl) = CN[C@@H](Cc1ccc(Cl)cc1)C(=O)O; 1Nal = N[C@@H](Cc1cccc2ccccc12)C(=O)O; His(π-Me) = Cn1cncc1C[C@H](N)C(=O)O; NMeY = CN[C@@H](Cc1ccc(O)cc1)C(=O)O; Abu = CC[C@H](N)C(=O)O Some results are limits rather than exact numbers.

As for `CC[C@@H]1NC(=O)[C@H](Cc2ccccc2)NC(=O)CSC[C@@H](C(=O)NCC(N)=O)NC(=O)[C@H](Cc2cncn2C)NC(=O)[C@H](CCCNC(=N)N)NC(=O)[C@H](Cc2c[nH]cn2)NC(=O)[C@H](Cc2ccc(Cl)cc2)N(C)C(=O)[C@H](CCCNC(=N)N)NC(=O)[C@H](CO)NC(=O)CNC(=O)[C@H](Cc2c[nH]cn2)NC(=O)[C@H](Cc2cccc3ccccc23)NC1=O` [Compound 33] ({CH2CO}-F[Abu][1Nal]HGSR[NMePhe(4-Cl)]HR[His(π-Me)]CG-NH2; thioether N-12), the “MIC K. pneumoniae ATCC43816 Wuxi::MIC” value in the experiment on K. pneumoniae ATCC43816 was 25. For the same molecule, in the experiment with E. coli 25922, the “MIC E. coli 25922 WUXI::MIC” value turned out to be 13. Further, in the experiment with E. coli BW25113, the “MIC E. coli BW25113 WUXI::MIC” value is given as 25. The “MIC E. coli 25922 IMP WUXI::MIC” value with E. coli 25922 IMP worked out at 0.0005. Further, in the experiment on E. cloacae ATCC222, the “MIC E. cloacae ATCC222 WUXI::MIC” value amounted to 1.6.

As to `CC[C@@H]1NC(=O)[C@H](Cc2ccccc2)NC(=O)CSC[C@@H](C(=O)NCC(N)=O)NC(=O)[C@H](Cc2cncn2C)NC(=O)[C@H](CCCNC(=N)N)NC(=O)[C@H](C)NC(=O)[C@H](Cc2ccc(O)cc2)N(C)C(=O)[C@H](CCCNC(=N)N)NC(=O)[C@H](CO)NC(=O)CNC(=O)[C@H](Cc2c[nH]cn2)NC(=O)[C@H](Cc2cccc3ccccc23)NC1=O` [Compound 37] ({CH2CO}-F[Abu][1Nal]HGSR[NMeY]AR[His(π-Me)]CG-NH2; thioether N-12), the “MIC K. pneumoniae ATCC43816 Wuxi::MIC” value with K. pneumoniae ATCC43816 worked out at 100. Also, the “MIC E. coli 25922 WUXI::MIC” value against E. coli 25922 was determined as 100. Besides, the “MIC E. coli BW25113 WUXI::MIC” value in the experiment with E. coli BW25113 worked out at 100. The “MIC E. coli 25922 IMP WUXI::MIC” value in the experiment with E. coli 25922 IMP is on record as 25. Moreover, in the experiment with E. cloacae ATCC222, the “MIC E. cloacae ATCC222 WUXI::MIC” value is listed as 100.

On to `CC(C)[C@@H]1NC(=O)[C@H](Cc2ccccc2)NC(=O)CSC[C@@H](C(=O)NCC(N)=O)NC(=O)[C@H](Cc2cnc[nH]2)NC(=O)[C@H](CCCNC(=N)N)NC(=O)[C@H](Cc2cnc[nH]2)NC(=O)[C@H](Cc2ccccc2)N(C)C(=O)[C@H](CCCNC(=N)N)NC(=O)[C@H](CO)NC(=O)CNC(=O)[C@H](Cc2cnc[nH]2)NC(=O)[C@H](Cc2c[nH]c3ccccc23)NC1=O` (racemic) [Compound 1, rac-(3R,6S,9S,12S,15S,18S,21S,27S,30S, 33S,36S)-N-(2-amino-2-oxo-ethyl)-15,36-dibenzyl-9,18-bis(3-guanidinopropyl)-21-(hydroxymethyl)-6,12,27-tris(1H-imidazol-5-ylmethyl)-30-(1H-indol-3-ylmethyl)-33-isopropyl-16-methyl-5,8,11,14,17,20,23,26,29,32,35,38-dodecaoxo-1-thia-4,7,10,13,16,19,22,25,28,31,34,37-dodecazacyclononatriacontane-3-carboxamide], for which, in the experiment with K. pneumoniae ATCC43816, the “MIC K. pneumoniae ATCC43816 Wuxi::MIC” value was determined as 50. In addition, the “MIC E. coli 25922 WUXI::MIC” value against E. coli 25922 is listed as 50. Moreover, the “MIC E. coli BW25113 WUXI::MIC” value against E. coli BW25113 worked out at 100. For the same molecule, the “MIC E. coli 25922 IMP WUXI::MIC” value with E. coli 25922 IMP amounted to 0.031. For the same molecule, in the experiment on E. cloacae ATCC222, the “MIC E. cloacae ATCC222 WUXI::MIC” value amounted to 6.3.

For `CC[C@@H]1NC(=O)[C@H](Cc2ccccc2)NC(=O)CSC[C@@H](C(=O)NCC(N)=O)NC(=O)[C@H](Cc2cncn2C)NC(=O)[C@H](CCCNC(=N)N)NC(=O)[C@H](Cc2cnc[nH]2)NC(=O)[C@H](Cc2ccc(O)cc2)N(C)C(=O)[C@H](CCCNC(=N)N)NC(=O)[C@H](CO)NC(=O)CNC(=O)[C@H](Cc2cnc[nH]2)NC(=O)[C@H](Cc2cccc3ccccc23)NC1=O` (racemic) [Compound 16], in the experiment on K. pneumoniae ATCC43816, the “MIC K. pneumoniae ATCC43816 Wuxi::MIC” value was found to be 8.5333. For the same molecule, the “MIC E. coli 25922 WUXI::MIC” value against E. coli 25922 is listed as 27.32. The “MIC E. coli BW25113 WUXI::MIC” value against E. coli BW25113 was found to be 14.767. Also, in the experiment on E. coli 25922 IMP, the “MIC E. coli 25922 IMP WUXI::MIC” value is 1.577. In the experiment with E. cloacae ATCC222, the “MIC E. cloacae ATCC222 WUXI::MIC” value was determined as 0.2633.

Consider `CC[C@H](C)[C@@H]1NC(=O)[C@H]([C@@H](C)O)NC(=O)CNC(=O)[C@H](Cc2ccccc2)NC(=O)CSC[C@@H](C(=O)NCC(N)=O)NC(=O)[C@H](Cc2ccccc2)NC(=O)[C@H](Cc2c[nH]c3ccccc23)NC(=O)[C@H](Cc2ccc(O)cc2)NC(=O)[C@H](CCCNC(=N)N)NC(=O)[C@H](Cc2ccccc2)NC(=O)[C@H](CCCNC(=N)N)NC(=O)[C@H](CCCNC(=N)N)NC(=O)[C@H](CCCCN)NC(=O)[C@H](Cc2cnc[nH]2)NC1=O` (racemic) [Compound 50], for which the “MIC K. pneumoniae ATCC43816 Wuxi::MIC” value in the experiment on K. pneumoniae ATCC43816 is on record as 32. In addition, the “MIC E. coli 25922 WUXI::MIC” value against E. coli 25922 worked out at 2. In the experiment on E. coli BW25113, the “MIC E. coli BW25113 WUXI::MIC” value is given as 2. Also, in the experiment on E. coli 25922 IMP, the “MIC E. coli 25922 IMP WUXI::MIC” value was found to be 1. The “MIC E. cloacae ATCC222 WUXI::MIC” value in the experiment on E. cloacae ATCC222 is recorded as >64.

Take `CC[C@@H](C)[C@H]1NC(=O)[C@@H](Cc2ccccc2)NC(=O)CSC[C@H](C(=O)NCC(N)=O)NC(=O)[C@@H](Cc2cncn2C)NC(=O)[C@@H](CCCNC(=N)N)NC(=O)[C@@H](Cc2cnc[nH]2)NC(=O)[C@@H](Cc2ccccc2)N(C)C(=O)[C@@H](CCCNC(=N)N)NC(=O)[C@@H](CO)NC(=O)CNC(=O)[C@@H](Cc2cnc[nH]2)NC(=O)[C@@H](Cc2cccc3ccccc23)NC1=O` (racemic) [Compound 17]: the “MIC K. pneumoniae ATCC43816 Wuxi::MIC” value against K. pneumoniae ATCC43816 is on record as 37.5. Moreover, the “MIC E. coli 25922 WUXI::MIC” value against E. coli 25922 is reported as 13. Moreover, in the experiment on E. coli BW25113, the “MIC E. coli BW25113 WUXI::MIC” value is 50. Further, the “MIC E. coli 25922 IMP WUXI::MIC” value in the experiment with E. coli 25922 IMP is on record as 0.002. In addition, in the experiment on E. cloacae ATCC222, the “MIC E. cloacae ATCC222 WUXI::MIC” value is listed as 3.1.
